The source made the active and inactive calls. No cut-off for these calls is given here.
Tests used:
[1] = molecular target: T1, Adrenergic receptor alpha-1 (Rattus norvegicus, UniProt P15823+P23944+P43140); experiment: Displacement of [3H]prazosin from rat cerebral cortex alpha-1 adrenergic receptor by liquid scintillation counting analysis; format: tissue-based
T1 sequence (P15823 whole entry): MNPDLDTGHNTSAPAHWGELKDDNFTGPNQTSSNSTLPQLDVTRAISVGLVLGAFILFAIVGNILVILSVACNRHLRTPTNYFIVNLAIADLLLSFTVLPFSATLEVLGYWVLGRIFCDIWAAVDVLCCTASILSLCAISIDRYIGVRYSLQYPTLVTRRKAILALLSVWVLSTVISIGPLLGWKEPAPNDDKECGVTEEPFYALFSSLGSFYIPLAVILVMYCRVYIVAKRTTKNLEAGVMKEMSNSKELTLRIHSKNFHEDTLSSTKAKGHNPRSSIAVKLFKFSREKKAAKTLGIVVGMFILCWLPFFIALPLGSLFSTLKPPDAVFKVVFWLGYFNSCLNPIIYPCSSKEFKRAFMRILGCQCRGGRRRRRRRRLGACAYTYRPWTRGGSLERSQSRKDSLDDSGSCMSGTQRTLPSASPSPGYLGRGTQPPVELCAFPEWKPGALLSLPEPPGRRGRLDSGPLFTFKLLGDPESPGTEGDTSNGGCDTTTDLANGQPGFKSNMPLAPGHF
T1 sequence (P23944 whole entry): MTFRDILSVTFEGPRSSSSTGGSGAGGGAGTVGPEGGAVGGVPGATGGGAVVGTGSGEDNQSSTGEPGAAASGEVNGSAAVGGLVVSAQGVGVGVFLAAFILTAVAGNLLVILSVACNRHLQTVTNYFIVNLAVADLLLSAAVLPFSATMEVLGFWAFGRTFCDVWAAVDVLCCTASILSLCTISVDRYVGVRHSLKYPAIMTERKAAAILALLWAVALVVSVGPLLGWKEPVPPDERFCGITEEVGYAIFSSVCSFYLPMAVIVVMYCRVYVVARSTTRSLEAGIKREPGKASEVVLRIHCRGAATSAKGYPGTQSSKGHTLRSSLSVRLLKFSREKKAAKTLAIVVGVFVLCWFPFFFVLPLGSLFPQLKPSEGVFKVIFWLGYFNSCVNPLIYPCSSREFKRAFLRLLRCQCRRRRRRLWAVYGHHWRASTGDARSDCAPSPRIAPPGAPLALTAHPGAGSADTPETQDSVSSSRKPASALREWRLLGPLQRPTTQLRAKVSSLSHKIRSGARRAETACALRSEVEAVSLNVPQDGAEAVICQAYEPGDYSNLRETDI
T1 sequence (P43140 whole entry): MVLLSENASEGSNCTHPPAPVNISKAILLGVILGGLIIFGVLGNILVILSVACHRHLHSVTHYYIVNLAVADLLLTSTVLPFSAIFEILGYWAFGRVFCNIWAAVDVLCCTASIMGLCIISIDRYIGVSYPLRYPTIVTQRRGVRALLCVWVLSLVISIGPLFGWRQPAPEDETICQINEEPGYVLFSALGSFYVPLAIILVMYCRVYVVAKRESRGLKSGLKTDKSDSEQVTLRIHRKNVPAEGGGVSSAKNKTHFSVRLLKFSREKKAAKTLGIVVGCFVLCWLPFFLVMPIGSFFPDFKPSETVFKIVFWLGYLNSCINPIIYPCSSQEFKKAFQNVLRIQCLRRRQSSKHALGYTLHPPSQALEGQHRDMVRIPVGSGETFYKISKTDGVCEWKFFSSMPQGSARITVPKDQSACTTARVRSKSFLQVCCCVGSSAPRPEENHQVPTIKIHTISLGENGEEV

[2] = molecular target: T2, Adrenergic receptor alpha-2 (Rattus norvegicus, UniProt P22086+P19328+P22909); experiment: Displacement of [3H]clonidine from rat cerebral cortex alpha-2 adrenergic receptor by liquid scintillation counting analysis; format: tissue-based
T2 sequence (P22086 whole entry): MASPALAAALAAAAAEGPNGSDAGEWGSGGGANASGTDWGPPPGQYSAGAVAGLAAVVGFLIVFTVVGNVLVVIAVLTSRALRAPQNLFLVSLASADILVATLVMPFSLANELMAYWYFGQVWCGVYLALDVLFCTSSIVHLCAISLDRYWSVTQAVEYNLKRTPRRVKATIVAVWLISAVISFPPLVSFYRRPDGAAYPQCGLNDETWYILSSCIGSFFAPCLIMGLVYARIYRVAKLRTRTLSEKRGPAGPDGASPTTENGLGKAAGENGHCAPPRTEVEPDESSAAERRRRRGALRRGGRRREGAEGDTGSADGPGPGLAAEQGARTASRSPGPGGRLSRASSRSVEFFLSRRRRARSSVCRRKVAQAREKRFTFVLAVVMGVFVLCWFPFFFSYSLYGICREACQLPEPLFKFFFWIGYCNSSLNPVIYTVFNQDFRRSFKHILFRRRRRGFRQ
T2 sequence (P19328 whole entry): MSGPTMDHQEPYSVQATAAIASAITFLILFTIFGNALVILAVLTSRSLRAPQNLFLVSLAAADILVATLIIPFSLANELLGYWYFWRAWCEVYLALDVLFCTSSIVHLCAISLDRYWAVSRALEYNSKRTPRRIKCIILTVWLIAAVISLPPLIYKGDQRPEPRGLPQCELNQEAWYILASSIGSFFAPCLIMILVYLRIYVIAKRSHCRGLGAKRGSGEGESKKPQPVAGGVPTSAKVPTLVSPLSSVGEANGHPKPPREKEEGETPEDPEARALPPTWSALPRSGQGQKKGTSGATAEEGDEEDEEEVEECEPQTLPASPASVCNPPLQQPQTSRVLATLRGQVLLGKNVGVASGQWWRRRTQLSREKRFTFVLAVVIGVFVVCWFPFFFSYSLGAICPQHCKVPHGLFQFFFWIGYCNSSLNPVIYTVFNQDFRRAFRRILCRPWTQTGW
T2 sequence (P22909 whole entry): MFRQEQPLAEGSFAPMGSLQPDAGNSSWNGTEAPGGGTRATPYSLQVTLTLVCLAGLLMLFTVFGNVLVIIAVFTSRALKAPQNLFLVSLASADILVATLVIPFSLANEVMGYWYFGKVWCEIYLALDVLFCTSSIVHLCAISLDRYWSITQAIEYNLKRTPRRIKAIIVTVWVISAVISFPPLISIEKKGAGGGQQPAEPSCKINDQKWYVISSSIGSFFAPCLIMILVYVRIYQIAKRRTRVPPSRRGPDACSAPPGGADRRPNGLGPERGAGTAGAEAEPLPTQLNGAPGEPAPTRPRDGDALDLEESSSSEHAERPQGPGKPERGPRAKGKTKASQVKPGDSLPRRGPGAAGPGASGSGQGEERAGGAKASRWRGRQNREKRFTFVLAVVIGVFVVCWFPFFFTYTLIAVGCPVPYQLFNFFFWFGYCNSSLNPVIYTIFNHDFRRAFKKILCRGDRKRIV

Rattus norvegicus [3] = experiment: Hypotensive activity in normotensive anesthetized Wistar rat assessed as reduction of diastolic pressure at 1 to 5 mg/kg, iv measured up to 60 mins; format: functional, organism-based
Rattus norvegicus [4] = experiment: Hypotensive activity in normotensive anesthetized Wistar rat assessed as reduction of systolic pressure at 1 to 5 mg/kg, iv measured up to 60 mins; format: functional, organism-based
[5] = molecular target: T3, Alpha-1A adrenergic receptor (Homo sapiens, UniProt P35348); experiment: Antagonist activity at alpha-1A adrenergic receptor (unknown origin) incubated for 30 mins prior to agonist addition measured after 5 hrs by CCF4-AM staining-based cellular assay
T3 sequence (P35348 whole entry): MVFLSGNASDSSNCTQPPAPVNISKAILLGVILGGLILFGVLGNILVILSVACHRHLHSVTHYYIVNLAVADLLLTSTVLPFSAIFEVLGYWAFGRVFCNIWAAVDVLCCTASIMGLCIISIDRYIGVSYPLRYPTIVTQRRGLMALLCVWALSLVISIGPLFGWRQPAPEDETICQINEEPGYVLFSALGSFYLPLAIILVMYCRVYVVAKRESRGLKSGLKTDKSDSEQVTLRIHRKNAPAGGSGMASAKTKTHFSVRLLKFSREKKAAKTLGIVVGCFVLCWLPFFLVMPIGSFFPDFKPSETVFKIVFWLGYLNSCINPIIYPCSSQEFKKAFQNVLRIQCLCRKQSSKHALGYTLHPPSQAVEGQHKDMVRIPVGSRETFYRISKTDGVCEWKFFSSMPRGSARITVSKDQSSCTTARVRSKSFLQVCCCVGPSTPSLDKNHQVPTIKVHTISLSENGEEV

[6] = molecular target: T4, Alpha-1B adrenergic receptor (Homo sapiens, UniProt P35368); experiment: Antagonist activity at alpha-1B adrenergic receptor (unknown origin) incubated for 30 mins prior to agonist addition measured after 5 hrs by CCF4-AM staining-based cellular assay
T4 sequence (P35368 whole entry): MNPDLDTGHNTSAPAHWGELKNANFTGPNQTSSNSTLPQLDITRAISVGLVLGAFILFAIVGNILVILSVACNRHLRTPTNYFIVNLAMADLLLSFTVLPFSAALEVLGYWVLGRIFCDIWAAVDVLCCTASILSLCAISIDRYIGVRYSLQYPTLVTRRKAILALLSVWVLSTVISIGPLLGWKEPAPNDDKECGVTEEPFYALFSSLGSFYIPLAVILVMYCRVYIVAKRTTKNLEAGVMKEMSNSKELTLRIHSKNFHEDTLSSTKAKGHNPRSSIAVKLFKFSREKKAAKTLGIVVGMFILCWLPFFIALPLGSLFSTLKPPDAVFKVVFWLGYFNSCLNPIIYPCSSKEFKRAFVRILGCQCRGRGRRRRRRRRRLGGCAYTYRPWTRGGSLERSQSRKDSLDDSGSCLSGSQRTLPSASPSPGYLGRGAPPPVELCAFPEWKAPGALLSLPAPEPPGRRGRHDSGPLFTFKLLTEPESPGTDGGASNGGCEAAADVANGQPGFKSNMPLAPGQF

[7] = molecular target: T3, Alpha-1A adrenergic receptor; experiment: Agonist activity at alpha-1A adrenergic receptor (unknown origin) after 5 hrs by CCF4-AM staining-based cellular assay
[8] = molecular target: T5, Adrenergic receptor alpha-1 (Homo sapiens, UniProt P35348+P25100+P35368); experiment: Binding affinity to alpha-1 adrenergic receptor (unknown origin)
T5 sequence (P35348 whole entry): T3 sequence (P35348 whole entry)
T5 sequence (P25100 whole entry): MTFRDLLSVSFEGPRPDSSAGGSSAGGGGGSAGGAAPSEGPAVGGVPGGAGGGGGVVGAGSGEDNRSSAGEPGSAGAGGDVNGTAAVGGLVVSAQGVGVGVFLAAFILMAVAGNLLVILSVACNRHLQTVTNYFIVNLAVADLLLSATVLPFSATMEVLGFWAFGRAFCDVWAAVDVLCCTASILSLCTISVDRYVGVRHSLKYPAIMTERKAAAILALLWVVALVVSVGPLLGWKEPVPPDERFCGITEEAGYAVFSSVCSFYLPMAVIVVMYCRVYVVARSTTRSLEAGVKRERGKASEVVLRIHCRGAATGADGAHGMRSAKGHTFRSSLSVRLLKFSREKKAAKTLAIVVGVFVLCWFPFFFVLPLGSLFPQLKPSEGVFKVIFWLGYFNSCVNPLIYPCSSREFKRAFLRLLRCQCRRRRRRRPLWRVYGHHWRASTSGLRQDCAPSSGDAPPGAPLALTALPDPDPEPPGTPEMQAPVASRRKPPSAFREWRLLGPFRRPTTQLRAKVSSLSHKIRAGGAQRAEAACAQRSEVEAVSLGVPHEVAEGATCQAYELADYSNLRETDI
T5 sequence (P35368 whole entry): T4 sequence (P35368 whole entry)

| pKi [1] | pKi [2] | EC50 ([5]; read-out: EC50) [nM] | EC50 [6] [nM] | pKi [8] | SMILES | Activity (Rattus norvegicus [3]) | Activity (Rattus norvegicus [4]) | EC50 [7] | EC50 [5] |
| --- | --- | --- | --- | --- | --- | --- | --- | --- | --- |
| 7.3 | 6.01 | 138 | 2.53 | – | Cl.O=C1CCCN1CCCCN1CCN(c2ccccc2Cl)CC1 | Active | Active | – | – |
| 6.44 | < 5 | – | 165 | – | Cl.O=C1CCCN1CCCCN1CCN(c2ccccc2O)CC1 | – | – | Not Active | Not Active |
| – | – | – | – | 7.05 | Cc1ccccc1N1CCN(CCN2CCCC2=O)CC1 | – | – | – | – |
| < 5 | < 5 | – | – | – | COc1ccccc1N1CCN(CCN2CCCC2=O)CC1.Cl | – | – | – | – |
| – | – | – | – | 7.13 | O=C1CCCN1CCN1CCN(c2ccccc2Cl)CC1 | – | – | – | – |
| 6.09 | 5.92 | – | – | – | Cc1ccccc1N1CCN(CCN2CCCC2=O)CC1.Cl | – | – | – | – |
| < 5 | < 5 | – | – | – | COc1ccc(N2CCN(CCCCN3CCCC3=O)CC2)cc1.Cl | – | – | – | – |

The next lines start with the molecule.

| SMILES | pKi [1] | pKi [2] | EC50 ([5]; read-out: EC50) [nM] | EC50 [6] [nM] | pKi [8] | Activity (Rattus norvegicus [3]) | Activity (Rattus norvegicus [4]) | EC50 [7] | EC50 [5] |
| --- | --- | --- | --- | --- | --- | --- | --- | --- | --- |
| Cl.O=C1CCCN1CCN1CCN(C(c2ccc(F)cc2)c2ccc(F)cc2)CC1 | 6.43 | 6.01 | – | – | – | – | – | – | – |
| COc1ccc(N2CCN(CCN3CCCC3=O)CC2)cc1.Cl | 5.92 | < 5 | – | – | – | – | – | – | – |
| Cl.O=C1CCCN1CCN1CCN(c2ccc(Cl)cc2)CC1 | 5.51 | < 5 | – | – | – | – | – | – | – |
| Cl.O=C1CCCN1CCCCN1CCN(C(c2ccccc2)c2ccccc2)CC1 | 6.65 | < 5 | – | 289 | – | – | – | Not Active | Not Active |
| Cl.O=C1CCCN1CCCCN1CCN(c2ccc(F)cc2F)CC1 | 6.77 | < 5 | – | 46.9 | – | – | – | Not Active | Not Active |
| Cc1ccccc1N1CCN(CCCCN2CCCC2=O)CC1.Cl | 7.14 | 6.05 | – | 3.5 | – | Active | Active | Not Active | Not Active |
| Cl.O=C1CCCN1CCCCN1CCN(C(c2ccc(F)cc2)c2ccc(F)cc2)CC1 | 7.07 | 5.92 | 329 | 131 | – | – | – | – | – |

Reference: ChEMBL document CHEMBL3400024, “α-Adrenoceptor antagonistic and hypotensive properties of novel arylpiperazine derivatives of pyrrolidin-2-one” (Bioorg Med Chem, 2015)
